Entries after “also recorded” stand apart in the source; their conditions may differ.
How the values were obtained:
MPF activity = assay: Histone H1 kinase assay on single oocytes/eggs (MPF activity); type: cell-based, mouse
Description: (§1) Histone H1 and myelin basic protein (MBP) dual kinase assays were performed as previously described (Svoboda et al., 2000). Dried gels were exposed to Kodak BIOMAX MR films for 12 to 72 hours at −80° C. using Kodak intensifying screens; films were developed, scanned, and analyzed using ImageJ software. Assays were performed on single oocytes, and densitometric analysis is expressed relative to levels in control eggs.

MAPK = assay: Myelin basic protein (MBP) kinase assay on single eggs (MAPK activity); type: cell-based, mouse; conditions: in vivo ovulated MII eggs, KSOM with 10 μM TPEN, 1 to 8 hours
Description: as §1

MII eggs = conditions: literature (Kim et al 2011, Suzuki et al 2010); cited from earlier work
Emi2 = biological target: T1, Emi2 (Mus musculus, UniProt Q8CDI2); assay: MI arrest induced by Emi2 cRNA injected into GV oocytes, IVM with or without TPEN; type: cell-based; conditions: IVM medium with 10 μM TPEN 14 h
T1 construct: expressed in transfected cells; host or cells: mouse oocytes microinjected with in vitro transcribed cRNA (pIVT vector)
T1 sequence (Q8CDI2 1-640): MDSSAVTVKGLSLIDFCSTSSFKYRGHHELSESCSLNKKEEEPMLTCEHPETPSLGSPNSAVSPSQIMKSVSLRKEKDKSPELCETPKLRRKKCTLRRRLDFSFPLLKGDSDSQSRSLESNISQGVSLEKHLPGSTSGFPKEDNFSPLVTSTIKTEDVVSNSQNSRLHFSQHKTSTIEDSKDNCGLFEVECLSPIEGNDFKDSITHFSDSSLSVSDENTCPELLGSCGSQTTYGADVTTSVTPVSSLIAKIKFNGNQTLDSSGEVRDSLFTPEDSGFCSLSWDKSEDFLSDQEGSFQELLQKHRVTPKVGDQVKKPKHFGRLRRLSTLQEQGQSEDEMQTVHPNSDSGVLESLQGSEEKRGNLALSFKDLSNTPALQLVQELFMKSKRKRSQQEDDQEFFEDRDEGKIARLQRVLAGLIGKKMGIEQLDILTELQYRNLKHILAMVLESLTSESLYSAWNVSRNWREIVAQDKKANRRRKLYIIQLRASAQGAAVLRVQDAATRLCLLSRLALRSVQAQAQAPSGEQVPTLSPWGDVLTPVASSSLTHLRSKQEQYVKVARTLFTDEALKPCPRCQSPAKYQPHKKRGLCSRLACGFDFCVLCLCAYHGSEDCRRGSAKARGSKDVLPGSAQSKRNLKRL
Description: Oocytes were denuded of cumulus cells and fixed in a microtubule stabilizing buffer (Ibanez et al., 2005) containing 2% formaldehyde and 1% Triton X-100 for 30 min at 37° C. Oocytes were washed and blocked in PBS containing 0.1M glycine, 3mg/mL BSA, 0.01% Tween 20, and 0.01% sodium azide for at least 1 h and were stored in blocking solution at 4° C. for up to 2 weeks. Oocytes were incubated with anti-tubulin antibody (1:100) for 1 h at 37C. followed by three washes in blocking solution. They were then incubated for 1 h in AlexaFluor-488 conjugated anti-mouse secondary antibody (5μg/mL) and rhodamine-phalloidin (2U/mL), washed three additional times, and mounted in VECTASHIELD with DAPI. Microscopy was performed using a Leica SP5 inverted laser-scanning confocal microscope with a 63x oil immersion objective (Leica Microsystems, Heidelberg, Germany). Images were processed using LAS AF software (Leica Microsystems).
Microinjection was performed essentially as previously described (Bernhardt et al., 2010). GV intact oocytes were collected and manually denuded of cumulus cells in L-15/FBS containing 0.2 mM IBMX, then transferred to drops of L-15 medium containing 0.05% (w/v) polyvinyl alcohol (PVA) and 0.5% (v/v) penicillin-streptomycin (Invitrogen) under light mineral oil on a heated stage for injection. […]

CCNB1 = assay: Western blot for CCNB1 in oocytes; type: cell-based, mouse; conditions: oocytes cultured with 10 μM TPEN during the MI-MII transition
Description: Western blotting was performed essentially as previously described (Bernhardt et al., 2010). Briefly, 15 to 50 cumulus-denuded oocytes were transferred in a minimal amount of medium to microcentrifuge tubes and immediately lysed in 8 μL of 1x SDSPAGE Sample Buffer (Laemmli, 1970). SDS-PAGE gels were run using the Invitrogen NuPAGE system and transferred to Immobilon-P PVDF membranes (Millipore, Billerica, MA). Blocking and antibody incubations were in 2% w/v ECL Advanced Blocking Reagent (Amersham) in TBS-T (20mM Tris, pH7.4, 137mM NaC1, 0.1% Tween20 v/v). Anti-CCNB1antibody was diluted 1:500, anti-FBXO43 was used at 1:1000 dilution, and anti-tubulin antibody was used at 1:10,000. HRP-conjugated secondary antibodies were diluted 1:10,000. Detection was performed using Amersham ECL Advanced detection reagent. BIOMAX MR films (Kodak, Rochester, NY) were exposed and developed, or an Alpha-Innotech (San Learndo, CA) MultiImage II system was used.

MPF activity (histone H1 kinase) in MII eggs (MPF activity; in vivo ovulated MII eggs, KSOM with 10 μM TPEN, 1 to 8 hours, seen as soon as 1 hour): decline
MPF activity (histone H1 kinase) (MPF activity; oocytes cultured with 10 μM TPEN during the MI-MII transition (7.5 h control, 6.5 h TPEN)): low
MAPK activity (MBP kinase) in MII eggs (MAPK): did not change appreciably
oocytes arrested at MI (Emi2): 44%
Structure (SMILES): c1ccc(CN(CCN(Cc2ccccn2)Cc2ccccn2)Cc2ccccn2)nc1 [TPEN, N,N,N′,N′-tetrakis(2-pyridylmethyl)ethylenediamine]
activation of MII-arrested eggs by zinc sequestration with TPEN (MII eggs): causes egg activation and resumption of cell cycle; also recorded: induce egg activation and embryo development
CCNB1 protein levels (CCNB1): low
